This note sets out measurements from patent US20260176320A1, “MODULATORS OF G-PROTEIN COUPLED RECEPTORS” (priority 2018, published 2026).

Assay type in all cases: cell-based
Test [1] has as its target T1, GLP-1R (Homo sapiens, UniProt P43220). The experiment in a line: HitHunter cAMP assay (GLP-1R). The following applies: cAMP; for Emax: read-out: (Emax) GLP-1R. The gist of the method:
(§1)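 Duplicate 22-point, 2-fold agonist titrations applied to receptor-expressing suspension cells in IBMX-containing HBSS; 30 min RT stimulation. Read: luminescent cAMP immunocompetition after O/N dark incubation.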
In general terms: cAMP levels reflect the balance of adenylyl cyclase and phosphodiesterase activity.

For test [2], the target named is T2, GIP-R (Homo sapiens, UniProt P48546).
T2 sequence (P48546 22-466): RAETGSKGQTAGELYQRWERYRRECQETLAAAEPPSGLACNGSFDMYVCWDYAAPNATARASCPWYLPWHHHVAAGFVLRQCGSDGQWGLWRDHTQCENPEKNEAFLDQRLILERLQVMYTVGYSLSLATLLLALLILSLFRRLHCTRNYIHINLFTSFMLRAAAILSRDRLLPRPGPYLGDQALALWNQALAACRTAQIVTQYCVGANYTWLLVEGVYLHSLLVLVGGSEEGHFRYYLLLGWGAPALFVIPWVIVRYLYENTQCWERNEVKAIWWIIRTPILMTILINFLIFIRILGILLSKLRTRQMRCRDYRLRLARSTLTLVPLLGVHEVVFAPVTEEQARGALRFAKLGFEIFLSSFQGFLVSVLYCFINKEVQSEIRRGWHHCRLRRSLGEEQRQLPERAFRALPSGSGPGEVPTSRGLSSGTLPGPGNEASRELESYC
The experiment in a line: HitHunter cAMP assay (GIP-R). The following applies: cAMP; for Emax: read-out: (Emax) GIP-R. In short, it runs like this:
as §1

Test [3] has as its target T1, GLP-1R. As to the kind of experiment: PathHunter β-arrestin assay. The gist of the method:
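Following a 90 min agonist exposure at 37 °C in 0.2% BSA medium, β-arrestin coupling was detected by chemiluminescence after 3 h at room temperature.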

The mark [4] stands for this setting: Table 3A, read-out: EC50 GLP-1R/nM.
The mark [5] stands for this setting: Table 3A, read-out: EC50 GIP-R/nM.
Where [6] appears, read: PathHunter β-arrestin assay, read-out: β-arrestin activity EC50.

The term Emax denotes the size of the effect at its maximum, as opposed to the concentration needed.

Molecules are shown by their SMILES. Like-named read-outs stand apart in the source and are kept apart here.

T1 sequence (P43220 24-463): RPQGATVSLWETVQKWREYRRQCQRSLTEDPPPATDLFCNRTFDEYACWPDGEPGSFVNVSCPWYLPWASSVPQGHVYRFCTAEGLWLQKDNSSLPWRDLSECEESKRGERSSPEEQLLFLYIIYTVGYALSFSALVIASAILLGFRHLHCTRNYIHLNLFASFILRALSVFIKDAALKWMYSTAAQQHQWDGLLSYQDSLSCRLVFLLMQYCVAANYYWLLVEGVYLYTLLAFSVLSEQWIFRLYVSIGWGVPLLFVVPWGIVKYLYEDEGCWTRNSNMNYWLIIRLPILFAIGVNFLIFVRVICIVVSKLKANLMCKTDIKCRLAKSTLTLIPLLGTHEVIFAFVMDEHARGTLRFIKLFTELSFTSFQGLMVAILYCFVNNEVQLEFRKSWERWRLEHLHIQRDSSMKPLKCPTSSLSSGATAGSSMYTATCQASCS

In the case of `CCCCCCCCCCCCCCCC(=O)N[C@@H](CCC(=O)NCCCC[C@H](NC(=O)[C@H](CO)NC(=O)[C@@H]1CCCN1C(=O)[C@@H]1CCCN1C(=O)[C@@H]1CCCN1C(=O)[C@H](C)NC(=O)CNC(=O)[C@H](CO)NC(=O)[C@H](CO)NC(=O)[C@@H]1CCCN1C(=O)CNC(=O)CNC(=O)[C@H](C)NC(=O)[C@H](CC(C)C)NC(=O)[C@H](CC(C)C)NC(=O)[C@H](Cc1c[nH]c2ccccc12)NC(=O)[C@H](CC(N)=O)NC(=O)[C@@H](NC(=O)[C@H](Cc1ccccc1)NC(=O)[C@H](CCC(=O)O)NC(=O)C(C)(C)NC(=O)[C@H](C)NC(=O)[C@H](C)NC(=O)[C@H](CCC(N)=O)NC(=O)[C@H](CCCCN)NC(=O)[C@H](CC(=O)O)NC(=O)[C@H](CC(C)C)NC(=O)[C@H](Cc1ccc(O)cc1)NC(=O)[C@@H](NC(=O)[C@H](CO)NC(=O)[C@H](Cc1ccc(O)cc1)NC(=O)[C@H](CC(=O)O)NC(=O)[C@H](CO)NC(=O)[C@@H](NC(=O)[C@H](Cc1ccccc1)NC(=O)[C@@H](NC(=O)CNC(=O)[C@H](CCC(=O)O)NC(=O)CSCC(=O)NCCN1CC[C@@H](OC)C1=O)[C@@H](C)O)[C@@H](C)O)[C@@H](C)CC)C(C)C)C(N)=O)C(=O)O` [Compound 11], the EC50 in test [1] (EC50 GLP-1R/nM, Table 3) is 0.1 to 1 nM; in test [1] (EC50 GLP-1R/nM, Table 3A), 0.1 to 1 nM; in test [2] (EC50 GIP-R/nM, Table 3), 1 to 10 nM; in test [2] (EC50 GIP-R/nM, Table 3A), 1 to 10 nM; in test [3] it was > 1000 nM. The maximum response (Emax) in test [1] (Table 3) was determined as 96%; in test [1] (Table 3A) it was 96%; in test [2] (Table 3), 39%; in test [2] (Table 3A), 39%.
For `CCCCCCCCCCCCCCCC(=O)N[C@@H](CCC(=O)NCCCC[C@H](NC(=O)[C@H](CO)NC(=O)[C@@H]1CCCN1C(=O)[C@@H]1CCCN1C(=O)[C@@H]1CCCN1C(=O)[C@H](C)NC(=O)CNC(=O)[C@H](CO)NC(=O)[C@H](CO)NC(=O)[C@@H]1CCCN1C(=O)CNC(=O)CNC(=O)[C@H](C)NC(=O)[C@H](CC(C)C)NC(=O)[C@H](CC(C)C)NC(=O)[C@H](Cc1c[nH]c2ccccc12)NC(=O)[C@H](CC(N)=O)NC(=O)[C@@H](NC(=O)[C@H](Cc1ccccc1)NC(=O)[C@H](CCC(=O)O)NC(=O)C(C)(C)NC(=O)[C@H](C)NC(=O)[C@H](C)NC(=O)[C@H](CCC(N)=O)NC(=O)[C@H](CCCCN)NC(=O)[C@H](CC(=O)O)NC(=O)[C@H](CC(C)C)NC(=O)[C@H](Cc1ccc(O)cc1)NC(=O)[C@@H](NC(=O)[C@H](CO)NC(=O)[C@H](Cc1ccc(O)cc1)NC(=O)[C@H](CC(=O)O)NC(=O)[C@H](CO)NC(=O)[C@@H](NC(=O)[C@H](Cc1ccccc1)NC(=O)[C@@H](NC(=O)CNC(=O)[C@H](CCC(=O)O)NC(=O)CSCC(=O)NCCN1CCC[C@@H](O)C1=O)[C@@H](C)O)[C@@H](C)O)[C@@H](C)CC)C(C)C)C(N)=O)C(=O)O` [Compound 7], the EC50 is < 0.1 nM in test [1] (EC50 GLP-1R/nM, Table 3); < 0.1 nM in test [1] (EC50 GLP-1R/nM, Table 3A); 1 to 10 nM in test [2] (EC50 GIP-R/nM, Table 3); 10 to 100 nM in test [2] (EC50 GIP-R/nM, Table 3A); > 1000 nM in test [3]. In addition, the Emax stood at 94% in test [1] (Table 3), 94% in test [1] (Table 3A), 29% in test [2] (Table 3) and 29% in test [2] (Table 3A).
In the case of `CCCCCCCCCCCCCCCC(=O)N[C@@H](CCC(=O)NCCCC[C@H](NC(=O)[C@H](CO)NC(=O)[C@@H]1CCCN1C(=O)[C@@H]1CCCN1C(=O)[C@@H]1CCCN1C(=O)[C@H](C)NC(=O)CNC(=O)[C@H](CO)NC(=O)[C@H](CO)NC(=O)[C@@H]1CCCN1C(=O)CNC(=O)CNC(=O)[C@H](C)NC(=O)[C@H](CC(C)C)NC(=O)[C@H](CC(C)C)NC(=O)[C@H](Cc1c[nH]c2ccccc12)NC(=O)[C@H](CC(N)=O)NC(=O)[C@@H](NC(=O)[C@H](Cc1ccccc1)NC(=O)[C@H](CCC(=O)O)NC(=O)C(C)(C)NC(=O)[C@H](C)NC(=O)[C@H](C)NC(=O)[C@H](CCC(N)=O)NC(=O)[C@H](CCCCN)NC(=O)[C@H](CC(=O)O)NC(=O)[C@H](CC(C)C)NC(=O)[C@H](Cc1ccc(O)cc1)NC(=O)[C@@H](NC(=O)[C@H](CO)NC(=O)[C@H](Cc1ccc(O)cc1)NC(=O)[C@H](CC(=O)O)NC(=O)[C@H](CO)NC(=O)[C@@H](NC(=O)[C@H](Cc1ccccc1)NC(=O)[C@@H](NC(=O)CNC(=O)[C@H](CCC(=O)O)NC(=O)CSCC(=O)NCCN1CCCCS1(=O)=O)[C@@H](C)O)[C@@H](C)O)[C@@H](C)CC)C(C)C)C(N)=O)C(=O)O` [Compound 40], the EC50 was 0.1 to 1 nM in test [1] (EC50 GLP-1R/nM, Table 3); 0.1 to 1 nM in test [1] (EC50 GLP-1R/nM, Table 3A); 1 to 10 nM in test [2] (EC50 GIP-R/nM, Table 3); 1 to 1000 nM in test [2] (read-out: EC50 GIP-R/nM, Table 3A); > 1000 nM in test [3]. The Emax was in the range of 101 to 105% in test [1] (Table 3), 101 to 105% in test [1] (Table 3A), 14 to 34% in test [2] (Table 3) and 14 to 34% in test [2] (Table 3A).
Turning to `CCCCCCCCCCCCCCCC(=O)N[C@@H](CCC(=O)NCCCC[C@H](NC(=O)[C@H](CO)NC(=O)[C@@H]1CCCN1C(=O)[C@@H]1CCCN1C(=O)[C@@H]1CCCN1C(=O)[C@H](C)NC(=O)CNC(=O)[C@H](CO)NC(=O)[C@H](CO)NC(=O)[C@@H]1CCCN1C(=O)CNC(=O)CNC(=O)[C@H](C)NC(=O)[C@H](CC(C)C)NC(=O)[C@H](CC(C)C)NC(=O)[C@H](Cc1c[nH]c2ccccc12)NC(=O)[C@H](CC(N)=O)NC(=O)[C@@H](NC(=O)[C@H](Cc1ccccc1)NC(=O)[C@H](CCC(=O)O)NC(=O)C(C)(C)NC(=O)[C@H](C)NC(=O)[C@H](C)NC(=O)[C@H](CCC(N)=O)NC(=O)[C@H](CCCCN)NC(=O)[C@H](CC(=O)O)NC(=O)[C@H](CC(C)C)NC(=O)[C@H](Cc1ccc(O)cc1)NC(=O)[C@@H](NC(=O)[C@H](CO)NC(=O)[C@H](Cc1ccc(O)cc1)NC(=O)[C@H](CC(=O)O)NC(=O)[C@H](CO)NC(=O)[C@@H](NC(=O)[C@H](Cc1ccccc1)NC(=O)[C@@H](NC(=O)CNC(=O)[C@H](CCC(=O)O)NC(=O)CSCC(=O)NCC(=O)N1CCCCC1)[C@@H](C)O)[C@@H](C)O)[C@@H](C)CC)C(C)C)C(N)=O)C(=O)O` [Compound 226], the Emax is 89% in test [1] (Table 3A) and 17% in test [2] (Table 3A). For the same compound, the results for the EC50 in test [1] (setting [4]), in test [2] (setting [5]) and in test [3] (setting [6]) were 1 to 10 nM, 100 to 1000 nM and > 1000 nM, respectively.
Turning to `CC[C@H](C)[C@H](NC(=O)[C@H](CO)NC(=O)[C@H](Cc1ccc(O)cc1)NC(=O)[C@H](CC(=O)O)NC(=O)[C@H](CO)NC(=O)[C@@H](NC(=O)[C@H](Cc1ccccc1)NC(=O)[C@@H](NC(=O)CNC(=O)[C@H](CCC(=O)O)NC(=O)CNC(=O)CCCCN1C(=O)CSC1=O)[C@@H](C)O)[C@@H](C)O)C(=O)N[C@@H](Cc1ccc(O)cc1)C(=O)N[C@@H](CC(C)C)C(=O)N[C@@H](CC(=O)O)C(=O)N[C@@H](CCCCN)C(=O)N[C@@H](CCC(N)=O)C(=O)N[C@@H](C)C(=O)N[C@@H](C)C(=O)NC(C)(C)C(=O)N[C@@H](CCC(=O)O)C(=O)N[C@@H](Cc1ccccc1)C(=O)N[C@H](C(=O)N[C@@H](CC(N)=O)C(=O)N[C@@H](Cc1c[nH]c2ccccc12)C(=O)N[C@@H](CC(C)C)C(=O)N[C@@H](CC(C)C)C(=O)N[C@@H](C)C(=O)NCC(=O)NCC(=O)N1CCC[C@H]1C(=O)N[C@@H](CO)C(=O)N[C@@H](CO)C(=O)NCC(=O)N[C@@H](C)C(=O)N1CCC[C@H]1C(=O)N1CCC[C@H]1C(=O)N1CCC[C@H]1C(=O)N[C@@H](CO)C(=O)N[C@@H](CCCCN)C(N)=O)C(C)C` [Compound 171], the Emax in test [1] (Table 3) and in test [1] (Table 3A) was 93 to 98% each time. The EC50 was 1 to 10 nM in test [1] (Table 3, read-out: EC50 GLP-1R/nM); 1 to 10 nM in test [1] (setting [4]); > 1000 nM in test [2] (Table 3, read-out: EC50 GIP-R/nM); > 1000 nM in test [2] (setting [5]); > 1000 nM in test [3] (setting [6]). In addition, in test [2] (read-out: (Emax) GIP-R at 1 μM, Table 3, at 1 μM), the Emax at 1 µM was 6.5%.
